Source: article PMC8406774, “A Comparison of Two Monoterpenoid Synthases Reveals Molecular Mechanisms Associated With the Difference of Bioactive Monoterpenoids Between Amomum villosum and Amomum longiligulare” (Frontiers in Plant Science, 2021)

Key:
Test in all cases: GC-MS of terpene products after phosphatase treatment
Format in all cases: biochemical
AlTPS3 [1] = target: T1, AlTPS3 (Wurfbainia longiligularis, UniProt A0A7L7T473, A496G); conditions: overnight incubation with GPP; conserved DTE motif
T1 construct: gene TPS3; ORF 1791 bp, printed as 597 residues; predicted 47-residue N-terminal plastid transit peptide removed
T1 sequence (A0A7L7T473 entry or part of it A496G): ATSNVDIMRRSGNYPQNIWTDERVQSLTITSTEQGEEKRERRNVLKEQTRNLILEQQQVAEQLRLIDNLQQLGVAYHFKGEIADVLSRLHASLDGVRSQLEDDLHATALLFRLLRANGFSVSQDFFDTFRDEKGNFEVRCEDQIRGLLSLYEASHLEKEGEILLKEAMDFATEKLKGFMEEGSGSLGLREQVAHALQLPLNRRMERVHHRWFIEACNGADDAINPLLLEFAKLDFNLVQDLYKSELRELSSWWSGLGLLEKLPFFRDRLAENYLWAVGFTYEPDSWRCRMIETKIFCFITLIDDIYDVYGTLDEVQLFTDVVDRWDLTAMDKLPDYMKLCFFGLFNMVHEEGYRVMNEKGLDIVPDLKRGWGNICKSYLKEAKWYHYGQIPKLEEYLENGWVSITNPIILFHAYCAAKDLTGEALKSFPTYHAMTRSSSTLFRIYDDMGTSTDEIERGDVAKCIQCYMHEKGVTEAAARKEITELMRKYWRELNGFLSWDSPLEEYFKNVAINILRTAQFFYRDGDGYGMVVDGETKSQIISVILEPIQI

AlTPS2 = target: T2, AlTPS2 (Wurfbainia longiligularis, UniProt A0A7L7T499); conditions: 30 C, 1 h; then alkaline phosphatase 37 C
T2 construct: gene TPS2; full ORF 587 residues; predicted 34-residue N-terminal plastid transit peptide removed; MBP fusion (pMAL-c5X), E. coli Rosetta (DE3), about 108 kDa, tag kept
T2 sequence (A0A7L7T499 35-587): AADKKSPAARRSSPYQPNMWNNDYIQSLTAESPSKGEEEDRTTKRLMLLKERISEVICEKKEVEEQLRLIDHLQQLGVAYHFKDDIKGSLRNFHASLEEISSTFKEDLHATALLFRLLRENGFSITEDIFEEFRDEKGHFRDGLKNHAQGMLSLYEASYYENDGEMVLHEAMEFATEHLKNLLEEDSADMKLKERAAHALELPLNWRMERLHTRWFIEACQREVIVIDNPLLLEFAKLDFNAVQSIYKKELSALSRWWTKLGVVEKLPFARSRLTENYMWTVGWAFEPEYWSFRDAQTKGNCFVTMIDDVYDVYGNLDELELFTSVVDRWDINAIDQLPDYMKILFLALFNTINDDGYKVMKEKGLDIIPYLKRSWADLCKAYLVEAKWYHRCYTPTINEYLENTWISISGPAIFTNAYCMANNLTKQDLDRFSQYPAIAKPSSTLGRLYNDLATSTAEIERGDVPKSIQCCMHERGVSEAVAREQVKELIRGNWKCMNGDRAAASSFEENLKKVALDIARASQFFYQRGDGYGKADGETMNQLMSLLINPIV

AvTPS2 = target: T3, AvTPS2 (Wurfbainia villosa, UniProt A0A7L7TAQ2); conditions: 30 C, 1 h; then alkaline phosphatase 37 C
T3 construct: gene TPS2; full ORF 587 residues; predicted 34-residue N-terminal plastid transit peptide removed
T3 sequence (A0A7L7TAQ2 35-587): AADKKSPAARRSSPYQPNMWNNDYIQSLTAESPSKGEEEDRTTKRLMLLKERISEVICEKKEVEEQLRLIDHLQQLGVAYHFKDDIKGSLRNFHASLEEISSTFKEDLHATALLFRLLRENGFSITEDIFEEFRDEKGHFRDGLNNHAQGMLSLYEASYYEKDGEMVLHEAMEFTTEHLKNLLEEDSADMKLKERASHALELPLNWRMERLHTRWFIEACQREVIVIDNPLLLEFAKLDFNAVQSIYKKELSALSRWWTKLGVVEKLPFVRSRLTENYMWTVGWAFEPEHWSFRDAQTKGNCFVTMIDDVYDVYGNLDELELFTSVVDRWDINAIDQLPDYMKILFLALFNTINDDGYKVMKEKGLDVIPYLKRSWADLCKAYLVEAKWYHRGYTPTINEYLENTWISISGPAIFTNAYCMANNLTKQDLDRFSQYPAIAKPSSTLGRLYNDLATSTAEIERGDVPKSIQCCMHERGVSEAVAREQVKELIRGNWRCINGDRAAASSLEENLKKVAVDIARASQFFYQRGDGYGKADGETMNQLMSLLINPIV

AlTPS3 [2] = target: T4, AlTPS3 (Wurfbainia longiligularis, UniProt A0A7L7T473); conditions: 30 C, 1 h; then alkaline phosphatase 37 C
T4 construct: gene TPS3; ORF 1791 bp, printed as 597 residues; predicted 47-residue N-terminal plastid transit peptide removed
T4 sequence (A0A7L7T473 48-597): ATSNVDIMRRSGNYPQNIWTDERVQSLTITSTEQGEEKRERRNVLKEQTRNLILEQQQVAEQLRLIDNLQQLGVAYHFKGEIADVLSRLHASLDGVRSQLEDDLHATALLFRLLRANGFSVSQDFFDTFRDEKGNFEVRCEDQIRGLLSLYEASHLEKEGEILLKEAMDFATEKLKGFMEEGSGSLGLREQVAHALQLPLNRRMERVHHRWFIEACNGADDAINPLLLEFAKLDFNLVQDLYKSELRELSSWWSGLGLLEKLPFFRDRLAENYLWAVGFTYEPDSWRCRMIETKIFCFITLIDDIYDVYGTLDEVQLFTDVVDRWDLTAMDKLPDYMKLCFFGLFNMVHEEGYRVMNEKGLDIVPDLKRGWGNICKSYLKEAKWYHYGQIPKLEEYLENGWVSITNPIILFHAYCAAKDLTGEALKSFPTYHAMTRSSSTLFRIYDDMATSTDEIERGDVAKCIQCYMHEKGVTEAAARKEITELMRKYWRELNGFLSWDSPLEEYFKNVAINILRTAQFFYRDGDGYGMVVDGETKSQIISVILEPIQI

AvBPPS = target: T5, AvBPPS (Wurfbainia villosa, UniProt A0A2Z4K4Q8); conditions: 30 C, 1 h; then alkaline phosphatase 37 C
T5 construct: gene TPS3; full length 596 residues; recombinant, cloned in the authors' earlier work (Wang et al. 2018); truncation and tag not restated here
T5 sequence (A0A2Z4K4Q8 entry or part of it): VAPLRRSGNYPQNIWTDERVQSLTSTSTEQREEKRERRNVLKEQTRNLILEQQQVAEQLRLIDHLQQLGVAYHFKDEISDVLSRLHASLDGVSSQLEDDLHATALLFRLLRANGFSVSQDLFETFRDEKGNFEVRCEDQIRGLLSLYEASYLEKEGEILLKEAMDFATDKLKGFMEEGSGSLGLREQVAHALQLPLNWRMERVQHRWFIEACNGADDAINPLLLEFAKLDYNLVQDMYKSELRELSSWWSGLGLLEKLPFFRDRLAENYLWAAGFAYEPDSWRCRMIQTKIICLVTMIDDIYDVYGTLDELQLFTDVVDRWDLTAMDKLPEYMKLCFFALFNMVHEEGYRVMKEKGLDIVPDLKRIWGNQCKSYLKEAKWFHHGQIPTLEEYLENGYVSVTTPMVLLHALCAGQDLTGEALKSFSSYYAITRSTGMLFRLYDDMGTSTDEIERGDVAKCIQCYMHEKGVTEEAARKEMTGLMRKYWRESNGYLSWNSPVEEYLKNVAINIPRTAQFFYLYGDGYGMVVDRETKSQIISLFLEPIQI

Compound: CC(C)=CCC/C(C)=C/COP(=O)(O)OP(=O)(O)O [GPP]
- GC-MS of terpene products after phosphatase treatment (AlTPS3 [1]): the site-directed mutant of AlTPS3-A496G and AvBPPS-G495A were constructed, and the overnight reaction with GPP
- GC-MS of terpene products after phosphatase treatment (AlTPS2): When the substrate was GPP, AlTPS2, and AvTPS2 produced the monoterpene product linalool
- GC-MS of terpene products after phosphatase treatment (AvTPS2): When the substrate was GPP, AlTPS2, and AvTPS2 produced the monoterpene product linalool
- GC-MS of terpene products after phosphatase treatment (AlTPS3 [2]): AlTPS3 recombinant protein catalyzed GPP to produce camphene as the major product
- GC-MS of terpene products after phosphatase treatment (AvBPPS): reaction products generated by recombinant protein AlTPS3 and AvBPPS from GPP
